Values of other authors, collected in US20240315962A1, “EXTENDED RELEASE COMPOSITIONS COMPRISING PYRIDOSTIGMINE” (priority 2020, published 2024).

## CN(C)C(=O)Oc1ccc[n+](C)c1 [pyridostigmine]
NDA #020414
  bioavailability: 10-20%
oral
  elimination half-life: 3 to 5 h
  time-to-maximum peak plasma concentration: 1 to 2 h
